These results are taken from patent US8314256B2, “Modulators of ATP-binding cassette transporters” (Vertex Pharmaceuticals Incorporated, priority 2005, dated 2012).

The structures appear in SMILES notation. pEC50: −log10 of the molar value.

The target in this experiment is T1, ΔF508-CFTR (Homo sapiens, UniProt P13569, DEL508-508).
T1 construct: expressed in transfected cells
T1 sequence (P13569 with tags, fused parts or gaps DEL508-508): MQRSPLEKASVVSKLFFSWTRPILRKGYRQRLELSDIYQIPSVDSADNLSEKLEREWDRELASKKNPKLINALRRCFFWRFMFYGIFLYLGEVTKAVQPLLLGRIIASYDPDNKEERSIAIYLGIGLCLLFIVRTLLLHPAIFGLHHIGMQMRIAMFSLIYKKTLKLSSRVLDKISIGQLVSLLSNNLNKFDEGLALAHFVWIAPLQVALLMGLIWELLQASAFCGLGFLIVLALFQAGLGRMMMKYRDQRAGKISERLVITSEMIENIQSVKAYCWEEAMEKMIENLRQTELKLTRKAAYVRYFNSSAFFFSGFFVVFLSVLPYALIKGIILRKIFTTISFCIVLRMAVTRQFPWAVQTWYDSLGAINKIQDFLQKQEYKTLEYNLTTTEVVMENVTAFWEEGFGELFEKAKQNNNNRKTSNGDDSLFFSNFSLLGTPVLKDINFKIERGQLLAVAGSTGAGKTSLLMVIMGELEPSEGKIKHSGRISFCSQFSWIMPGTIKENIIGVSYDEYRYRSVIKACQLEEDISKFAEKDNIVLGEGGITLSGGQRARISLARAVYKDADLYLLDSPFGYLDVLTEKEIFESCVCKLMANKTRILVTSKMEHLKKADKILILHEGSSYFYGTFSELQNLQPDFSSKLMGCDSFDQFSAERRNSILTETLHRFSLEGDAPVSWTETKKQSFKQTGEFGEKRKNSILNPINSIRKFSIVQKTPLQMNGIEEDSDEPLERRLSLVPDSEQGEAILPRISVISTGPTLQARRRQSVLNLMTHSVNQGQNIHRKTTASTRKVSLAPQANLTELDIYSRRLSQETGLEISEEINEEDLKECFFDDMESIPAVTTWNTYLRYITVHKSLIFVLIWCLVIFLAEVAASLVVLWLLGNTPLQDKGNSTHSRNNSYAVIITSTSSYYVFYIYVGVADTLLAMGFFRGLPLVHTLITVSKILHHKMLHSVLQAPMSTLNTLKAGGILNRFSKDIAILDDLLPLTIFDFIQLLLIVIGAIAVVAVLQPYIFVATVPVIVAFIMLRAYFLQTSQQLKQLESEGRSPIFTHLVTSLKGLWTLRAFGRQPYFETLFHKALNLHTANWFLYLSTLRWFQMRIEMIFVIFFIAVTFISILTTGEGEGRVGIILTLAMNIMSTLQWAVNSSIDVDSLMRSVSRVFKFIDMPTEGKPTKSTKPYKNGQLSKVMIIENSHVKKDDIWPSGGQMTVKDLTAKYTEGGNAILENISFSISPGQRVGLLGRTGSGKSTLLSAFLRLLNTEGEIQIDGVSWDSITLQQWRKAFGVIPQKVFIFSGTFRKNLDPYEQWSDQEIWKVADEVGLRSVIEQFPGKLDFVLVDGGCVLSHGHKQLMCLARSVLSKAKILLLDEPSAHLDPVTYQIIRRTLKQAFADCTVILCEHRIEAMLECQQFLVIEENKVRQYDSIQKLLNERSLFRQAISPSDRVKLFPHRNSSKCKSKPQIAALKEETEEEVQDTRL
The experiment in a line: Membrane potential optical assay of ΔF508-CFTR modulation (Table 3 EC50; the table does not name the assay). The class given is cell-based. The source says: Membrane Potential Optical Methods for Assaying ΔF508-CFTR Modulation Properties of Compounds
The optical membrane potential assay utilized voltage-sensitive FRET sensors described by Gonzalez and Tsien (See, Gonzalez, J. E. and R. Y. Tsien (1995) “Voltage sensing by fluorescence resonance energy transfer in single cells” Biophys J 69(4): 1272-80, and Gonzalez, J. E. and R. Y. Tsien (1997) “Improved indicators of cell membrane potential that use fluorescence resonance energy transfer” Chem Biol 4(4): 269-77) in combination with instrumentation for measuring fluorescence changes such as the Voltage/Ion Probe Reader (VIPR) (See, Gonzalez, J. E., K. Oades, et al. (1999) “Cell-based assays and instrumentation for screening ion-channel targets” Drug Discov Today 4(9): 431-439).
These voltage sensitive assays are based on the change in fluorescence resonant energy transfer (FRET) between the membrane-soluble, voltage-sensitive dye, DiSBAC2(3), and a fluorescent phospholipid, CC2-DMPE, which is attached to the outer leaflet of the plasma membrane and acts as a FRET donor. Changes in membrane potential (Vm) cause the negatively charged DiSBAC2(3) to redistribute across the plasma membrane and the amount of energy transfer from CC2-DMPE changes accordingly. The changes in fluorescence emission were monitored using VIPR II, which is an integrated liquid handler and fluorescent detector designed to conduct cell-based screens in 96- or 384-well microtiter plates.
Identification of Correction Compounds
To identify small molecules that correct the trafficking defect associated with ΔF508-CFTR; a single-addition HTS assay format was developed. The cells were incubated in serum-free medium for 16 hrs at 37° C. in the presence or absence (negative control) of test compound. As a positive control, cells plated in 384-well plates were incubated for 16 hrs at 27° C. to “temperature-correct” ΔF508-CFTR. The cells were subsequently rinsed 3× with Krebs Ringers solution and loaded with the voltage-sensitive dyes. To activate ΔF508-CFTR, 10 μM forskolin and the CFTR potentiator, genistein (20 μM), were added along with Cl^−-free medium to each well. The addition of Cl^−-free medium promoted Cl^− efflux in response to ΔF508-CFTR activation and the resulting membrane depolarization was optically monitored using the FRET-based voltage-sensor dyes.
Identification of Potentiator Compounds
To identify potentiators of ΔF508-CFTR, a double-addition HTS assay format was developed. During the first addition, a Cl^−-free medium with or without test compound was added to each well. After 22 sec, a second addition of Cl^−-free medium containing 2-10 μM forskolin was added to activate ΔF508-CFTR. The extracellular Cl^− concentration following both additions was 28 mM, which promoted Cl^− efflux in response to ΔF508-CFTR activation and the resulting membrane depolarization was optically monitored using the FRET-based voltage-sensor dyes. Solutions
NIH3T3 mouse fibroblasts stably expressing ΔF508-CFTR are used for optical measurements of membrane potential. The cells are maintained at 37° C. in 5% CO2 and 90% humidity in Dulbecco's modified Eagle's medium supplemented with 2 mM glutamine, 10% fetal bovine serum, 1×NEAA, […]-ME, 1× pen/strep, and 25 mM HEPES in 175 cm^2 culture flasks. For all optical assays, the cells were seeded at 30,000/well in 384-well matrigel-coated plates and cultured for 2 hrs at 37° C. before culturing at 27° C. for 24 hrs. for the potentiator assay. For the correction assays, the cells are cultured at 27° C. or 37° C. with and without compounds for 16-24 hours
For `O=C(NCc1ccccc1)C(=O)c1c[nH]c2ccccc12` [Compound 6], the negative-log EC50 (pEC50) (usually the negative decadic logarithm of the EC50, by convention in mol/L) is over 6.00.

As for `O=C(NC(c1ccccc1)c1ccccc1)C(=O)c1c[nH]c2ccccc12` [Compound 1, N-Benzhydryl-2-(1H-indol-3-yl)-2-oxo-acetamide], the pEC50 was over 6.00.

For `O=C(NCCc1ccccc1)C(=O)c1c[nH]c2ccccc12` [Compound 2, 2-(1H-Indol-3-yl)-2-oxo-N-phenethyl-acetamide], the negative-log EC50 (pEC50) is over 6.00.

Consider `Cn1cc(C(=O)C(=O)NCCc2ccccc2)c2ccccc21` [Compound 10, 2-(1-Methyl-1H-indol-3-yl)-2-oxo-N-phenethyl-acetamide], for which the negative logarithm of the EC50 (pEC50) is under 5.30.

Regarding `Cn1cc(C(=O)C(=O)N(Cc2ccccc2)Cc2ccccc2)c2ccccc21` [Compound 15, N,N-Dibenzyl-2-(1-methyl-1H-indol-3-yl)-2-oxo-acetamide], the pEC50 is 5.30 to 6.00.

As for `O=C(NCC(c1ccccc1)c1ccccc1)C(=O)c1c[nH]c2ccccc12` [Compound 18, N-(2,2-Diphenylethyl)-2-(1H-indol-3-yl)-2-oxo-acetamide], the pEC50 was over 6.00.

Consider `CN(Cc1ccccc1)C(=O)C(=O)c1c[nH]c2ccccc12` [Compound 14, N-Benzyl-2-(1H-indol-3-yl)-N-methyl-2-oxo-acetamide], for which the pEC50 is under 5.30.

Take `COc1ccc(CCNC(=O)C(=O)c2c[nH]c3ccc(Br)cc23)cc1` [Compound 13]: the pEC50 was 5.30 to 6.00.

With `COc1ccccc1N1CCN(C(=O)C(=O)c2c[nH]c3ccc(Br)cc23)CC1` [Compound 7], the pEC50 was 5.30 to 6.00.

On to `O=C(NCCc1ccccc1)C(=O)c1c[nH]c2ccc(Br)cc12` [Compound 16], for which the pEC50 is over 6.00.

In the case of `Cc1ccc(Cn2cc(SCCNC(=O)C(=O)c3c[nH]c4ccccc34)c3ccccc32)cc1` [Compound 3], the negative logarithm of the EC50 (pEC50) was over 6.00.

For `O=C(NC(CN1CCOCC1)c1ccccc1)C(=O)c1c[nH]c2ccccc12` (centres unmarked) [Compound 4], the negative-log EC50 (pEC50) was under 5.30.

Take `CC(=O)Nc1ccc(OCCCNC(=O)C(=O)c2c[nH]c3ccc(Br)cc23)cc1` [Compound 8]: the pEC50 is 5.30 to 6.00.

With `Cn1cc(C(=O)C(=O)NCc2ccccc2)c2ccccc21` [Compound 9], the negative-log EC50 (pEC50) is under 5.30.

On to `Cn1cc(C(=O)C(=O)NC(c2ccccc2)c2ccccc2)c2ccccc21` [Compound 12, N-Benzhydryl-2-(1-methyl-1H-indol-3-yl)-2-oxo-acetamide], for which the pEC50 is under 5.30.

`O=C(NC(CSCc1ccccc1)CSCc1ccccc1)C(=O)c1c[nH]c2ccccc12` [Compound 17]: the pEC50 is 5.30 to 6.00.

On to `O=C(C(=O)N(Cc1ccccc1)Cc1ccccc1)c1c[nH]c2ccccc12` [Compound 5, N,N-Dibenzyl-2-(1H-indol-3-yl)-2-oxo-acetamide], for which the pEC50 is over 6.00.
